Like-named read-outs stand apart in the source and are kept apart here.
Tests used:
RPE cells = test: Cytotoxicity studies of propagators with RPE cells
Excerpt: Cytotoxicity studies were also completed with RPE cells for: NVC, NVP, EGDA, and phenylacetyl bromide (BAP), with 10% DMSO as a control.

[1] = Young's Modulus of hydrogels with radical propagators; format: physicochemical; conditions: propagator at 10 uL/mL in G5(80) [5% GelMA, 80% DoM], gelled
Protocol: (§1) Each of the three propagators (NVC, NVP, EGDA) were combined with G5(80) [5% GelMA, 80% DoM] at 10 uL/mL propagator concentration, and then gelled. Average Young's Modulus (kPa) for resulting hydrogels were as follows: EGDA [7.2494 kPa]; NVP [6.4995 kPa]; NVC [3.4744 kPa]. NVP and EGDA were also tested for a minimum concentration in G5 (10) and G5(80) which would still allow for hydrogel formation (1 minute crosslinking at ˜0.43 W). Minimum propagator concentrations for hydrogel formation were as follows: G5 (10) [NVP—5 uL/mL; EGDA—1.5 uL/mL]; G5 (80) [NVP—0.3 uL/mL; EGDA—0.1 uL/mL]

[2] = Minimum propagator concentration for hydrogel formation; format: physicochemical; conditions: 1 minute crosslinking at ˜0.43 W
Protocol: as §1

Average Young's Modulus [1] | Minimum propagator concentration for hydrogel formation ([2]; in G5 (10)) | Minimum propagator concentration for hydrogel formation ([2]; in G5 (80)) | SMILES | Cell viability (cytotoxicity) (RPE cells; after 18 hours of cell incubation, RPE cells, FIG. 19) | Cell viability (cytotoxicity) (RPE cells)
 |  |  | O=C(Br)Cc1ccccc1 [BAP, phenylacetyl bromide] | higher average cell viability than NVC | 
6.4995 kPa | 5 uL/mL | 0.3 uL/mL | C=CN1CCCC1=O [NVP, N-Vinylpyrrolidone] |  | higher average cell viability than NVC
3.4744 kPa |  |  | C=CN1CCCCCC1=O [NVC, N-vinylcaprolactam] |  | 
7.2494 kPa | 1.5 uL/mL | 0.1 uL/mL | C=CC(=O)OCCOC(=O)C=C [EGDA, Ethylene Glycol Diacrylate] |  | low cell viability

From patent US20250256007A1, “GELMA POLYMER COMPOSITIONS COMPRISING CELLS” (GelMEDIX, Inc., priority 2022, published 2025)
